From patent publication US5849782A, “Methods of inhibiting neurodegenerative diseases” (The General Hospital Corporation, priority 1996, dated 1998)

Legend:
mice = assay: Rectal temperature in mice; conditions: 7-NI 50 mg/kg
Method: To exclude the possibility that hypothermia may contribute to the protection, we maintained body temperature at 37.5° C. in controls, mice treated with four doses of MPTP at 20 mg/kg, and mice additionally treated with 7-NI (n=6 per group).

Male Sprague-Dawley rats [1] = assay: Body temperature in rats under pentobarbital anesthesia; type: in vivo, rat; conditions: 1 h after 50 mg/kg 7-NI i.p., control 36.5±0.1, p<0.02
Method: Stereotaxic Lesion Technique. Male Sprague-Dawley rats (Charles River, Cambridge, Mass.) weighing 300-325 g were anesthetized with pentobarbital (50 mg/kg i.p.) and positioned in a David Kopf stereotaxic instrument with the incisor bar set at 3.3 mm below the intermural line. Malonate, NMDA, KA, and AMPA were dissolved in 0.1M phosphate-buffered saline (pH, 7.4). Intrastriatal injections were made with a 10 μl Hamilton syringe fitted with a 30 gauge blunt-tipped needle into the left striatum at the coordinates 0.5 mm anterior bregma, 2.6 mm lateral to the midline and 5 mm ventral to the dura. Injection volumes were 1 μl (3 μmol malonate). All injections were made over 1 min and the needle was left in place for an additional 1 min before being slowly withdrawn. 7-NI was dissolved and sonicated in peanut oil at a concentration of 10 mg/ml. 50 mg/kg of 7-NI were administered i.p. 30 min before striatal injections of malonate, NMDA, KA and AMPA. […] Nine to ten animals were used per group in each experiment.

MAO-B [2] = biological target: T1, MAO-B (Mus musculus, UniProt Q8BW75); assay: MAO-B activity in forebrain mitochondrial fractions of treated mice; type: biochemical; conditions: four doses at 2-h intervals: deprenyl 10 mg/kg i.p. or 7-NI 50 mg/kg s.c.; vehicle 5.79±0.44
T1 construct: Crude mitochondrial preparations were obtain from the forebrains; from tissue; host or cells: mouse forebrain, crude mitochondrial fraction (P2 pellet on a discontinuous Ficoll gradient)
T1 sequence (Q8BW75 1-520): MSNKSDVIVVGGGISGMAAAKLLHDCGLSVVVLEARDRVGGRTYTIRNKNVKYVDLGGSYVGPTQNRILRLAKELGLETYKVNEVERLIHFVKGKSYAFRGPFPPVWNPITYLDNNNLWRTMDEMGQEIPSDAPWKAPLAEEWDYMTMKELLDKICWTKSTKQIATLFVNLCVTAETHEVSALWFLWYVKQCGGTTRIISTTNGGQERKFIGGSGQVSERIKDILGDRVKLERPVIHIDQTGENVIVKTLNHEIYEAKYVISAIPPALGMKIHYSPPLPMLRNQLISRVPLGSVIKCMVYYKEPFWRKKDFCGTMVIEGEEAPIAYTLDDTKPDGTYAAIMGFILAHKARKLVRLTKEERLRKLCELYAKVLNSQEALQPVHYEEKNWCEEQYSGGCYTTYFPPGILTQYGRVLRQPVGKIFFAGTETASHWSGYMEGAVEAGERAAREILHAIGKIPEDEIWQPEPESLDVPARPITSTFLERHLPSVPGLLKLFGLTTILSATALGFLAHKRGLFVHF

Male Swiss-Webster mice [3] = assay: MPTP-induced neurotoxicity in mice: striatal dopamine, DOPAC, HVA; type: in vivo, mouse; conditions: at 1 week
Method: Methods. Male Swiss-Webster mice (30-35 g:Taconic Farms, Germantown, N.Y., U.S.A.) were treated with either normal saline or MPTP hydrochloride (Research Biochemicals, Natick, Mass., U.S.A.). MPTP was administered in 0.1 ml of water at a dose of 10 mg/kg i.p. at 2-h intervals for six doses or 20 mg/kg i.p. at 2-h intervals for four doses. 7-NI (Cookson Chemical Ltd., Southhampton, U.K.) was dissolved in peanut oil (Sigma, St. Louis, Mo., U.S.A.) at a concentration of 5 mg/ml. Mice received doses of 25 or 50 mg/kg per subcutaneous injection. MPTP-treated animals were treated with peanut oil or 7-NI 12 h before the first, at every MPTP injection, and every 8 h for 48 h after MPTP injections. Eleven to 12 animals were used in each group. Animals were killed at 1 week. The two striata were rapidly dissected and placed in chilled 0.1M perchloric acid. Tissue was subsequently sonicated, and aliquots were taken for protein quantification using a fluorometric assay (Beal et al., 1990) J. Neurochem. 55:1327-1339).
(§1) Dopamine, 3,4-dihydroxyphenlyacetic acid (DOPAC), homovanillic acid (HVA), p-tyrosine, and 3-nitrotyrosine were quantified by HPLC with 16-electrode electrochemical detection (Beal et al. (1990) supra) and are expressed as ng/mg protein (mean±SEM) (FIG. 1). 3-Nitrotyrosine data are expressed as ratios of 3-nitrotyrosine to p-tyrosine to normalize for differing brain concentrations of tyrosine. The statistical significance of differences was determined via one-way ANOVA followed by Fisher PLSD post hoc test to compare group means. All animal use procedures were in strict accordance with the NIH Guide for the Care and Use of Laboratory Animals and were approved by the local Animal Care Committee.

MAO-B [4] = biological target: T1, MAO-B; assay: MAO-B activity in vitro, mitochondrial fraction of mouse forebrain; type: biochemical; conditions: at 1, 10, and 100 μM
Male Sprague-Dawley rats [5] = assay: Spontaneous striatal electrophysiological activity; conditions: 60 minutes after 50 mg/kg 7-NI; urethane anesthetized rats
Method: Electrophysiology. Four male Sprague-Dawley rats weighing 300 to 400 g were used for electrophysiological studies. Animals were anesthetized with urethane 1.5 g/kg i.p. and placed in a stereotaxic apparatus with their body temperatures maintained at 37° C. by a feedback heating pad. A 0.5×0.5 cm craniotomy was made and recording electrodes were placed in the anterior striatum using stereotaxic coordinates and aural monitoring. Following electrode placement the craniotomy was covered with 4% agar in saline and 30 min were allowed for stabilization before recordings were made. The spontaneous activity of multiple units were recorded extracellularly in the striatum, 3-4 mm anterior to the bregma and 3-4 mm lateral to the midline at a depth of 2.5-4.0 mm using commercially available tungsten microelectrodes (4 M.OMEGA. at 1 kHz, F. Haer, Inc.). […] Data acquisition and analysis of mean firing rate was performed using Discovery.COPYRGT., Experimenters WorkBench.COPYRGT. and Personal Scientific Workstation.COPYRGT. software (DataWave Technologies, Longmont, Colo.). We investigated the electrophysiological effects of the NMDA antagonist MK-801 and the NOS inhibitor 7-NI. […] Finally, spontaneous activity was recorded after the NMDA channel mediated activity was blocked by injection of MK-801 (4 mg/kg).

rats = assay: Striatal ATP after intrastriatal malonate (luciferin-luciferase); type: in vivo, rat; conditions: 7-NI 50 mg/kg; 3 μmol malonate; measured 1.5 h after injection
Method: ATP Measurements. The effects of 7-NI on malonate-induced decreases in striatal ATP concentrations were examined. 50 mg/kg of 7-NI dissolved in peanut oil or peanut oil vehicle were administered i.p. 0.5 h before intrastriatal injection of 3 μmol malonate. […] After decapitation the heads were rapidly frozen in liquid nitrogen and subsequently stored at -70° C. The striata were dissected from a 2 mm slice frontal and adjacent to the anterior commissure on a freezing cold plate. The corpus callosum, the septal complex, and the anterior commissure were used as dorsal and lateral, medial, and ventral boundaries. ATP was measured by the luciferin-luciferase assay (Lust et al. (1981) Anal. Biochem. 110-258-266). Proteins were measured on the pellets using a fluorimetric assay. Eight animals per group were examined.

Male Swiss-Webster mice [6] = assay: 3-nitrotyrosine to tyrosine ratio in mouse striatum after MPTP; type: in vivo; conditions: MPTP 20 mg/kg x4; 7-NI 25 or 50 mg/kg
Method: as §1
Role of Peroxynitrite in MPTP. To determine whether peroxynitrite plays a role in MPTP neurotoxicity, we therefore measured the ratio of 3-nitrotyrosine to tyrosine in mouse striatum following administration of MPTP.

dopamine transporter = dopamine transporter (Mus musculus, UniProt Q61327); conditions: at 1, 10 and 100 μM; 0.13 μM [3H]-dopamine
dopamine transporter, sequence (Q61327 whole entry): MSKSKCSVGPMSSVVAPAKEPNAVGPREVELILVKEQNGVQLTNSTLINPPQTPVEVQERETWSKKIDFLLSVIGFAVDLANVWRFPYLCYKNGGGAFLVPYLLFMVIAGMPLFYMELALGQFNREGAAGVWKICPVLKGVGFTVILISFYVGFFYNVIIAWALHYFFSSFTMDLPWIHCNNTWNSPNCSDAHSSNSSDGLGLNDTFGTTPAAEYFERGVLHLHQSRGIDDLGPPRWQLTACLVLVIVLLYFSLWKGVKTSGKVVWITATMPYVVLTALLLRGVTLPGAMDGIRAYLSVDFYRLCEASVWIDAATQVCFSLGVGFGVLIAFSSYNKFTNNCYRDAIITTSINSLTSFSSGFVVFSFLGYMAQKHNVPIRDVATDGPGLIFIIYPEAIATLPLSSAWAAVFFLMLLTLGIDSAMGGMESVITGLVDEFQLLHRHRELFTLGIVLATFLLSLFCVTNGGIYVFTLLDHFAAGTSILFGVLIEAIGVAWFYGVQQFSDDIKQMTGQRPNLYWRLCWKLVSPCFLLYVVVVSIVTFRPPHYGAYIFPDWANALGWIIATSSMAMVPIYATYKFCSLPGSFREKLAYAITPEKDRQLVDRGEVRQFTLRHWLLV

## O=[N+]([O-])c1cccc2cn[nH]c12 [7-NI, 7-nitroindazole]
mice; 0.5 h after injection, p=0.03
  decrease in rectal temperature vs peanut oil controls: 0.6 °C
mice; 0.5 h after injection, peanut oil controls 36.8±0.2
  rectal temperature: 36.2±0.1 °C
mice; 1 h after injection
  change in rectal temperature vs peanut oil controls: no significant decrease
Male Sprague-Dawley rats [1]
  body temperature: 35.9±0.26 ° c.
MAO-B [2]
  MAO-B activity in forebrain mitochondrial fraction after in vivo treatment: 5.69±0.40 nmol/min/mg of protein
Male Swiss-Webster mice [3]; MPTP 10 mg/kg i.p. x6 at 2-h intervals, 7-NI 50 mg/kg s.c.
  striatal dopamine, % of control values: 92 % of control values
Male Swiss-Webster mice [3]; MPTP 20 mg/kg i.p. x4, 7-NI 50 mg/kg
  protection against MPTP-induced depletions of dopamine, HVA and DOPAC: almost complete protection
MAO-B [4]
  inhibition of MAO-B activity in vitro: did not inhibit
Male Sprague-Dawley rats [5]
  mean spontaneous firing rate in striatum: not significantly different from the baseline
rats
  malonate-induced decreases of striatal ATP concentrations: significantly attenuated
Male Swiss-Webster mice [6]
  MPTP-induced increase of 3-nitrotyrosine to tyrosine ratio in striatum: significantly attenuated
Dopamine transporter
  inhibition of [3H]dopamine uptake into synaptosomes: did not inhibit
